Drawing on patent US12655090B2, “Cyclopropylamide compounds against parasites in fish” (Intervet Inc., priority 2021, dated 2026), this text covers inhibition in vivo, EC50 and inhibition for eleven compounds.

pEC50: −log10 of the molar value. Like-named read-outs stand apart in the source and are kept apart here.

In experiment [1] the test system is Lepeophtheirus salmonis sea lice on salmon (Salmo salar). In words: Salmon in vivo efficacy trial using gavage administration. The note with it: po. As to the method: Salmon (Salmo salar) were treated once orally by gavage at a dose of 5 mg/kg bodyweight per fish (Day 0). As formulation DMSO 5%/fish oil 95% was used. Salmon of the negative control group received only the excipients of the formulation. The fish were infested with Lepeophtheirus salmonis copepodids twice before treatment (i.e., around day −28 and day −3) and once after treatment (i.e., day 17). […] Around day 28 (end of animal phase), fish were euthanized, and lice on each fish were classified ((pre-)adult or juvenile stage) and counted. […] Efficacy is expressed as a % reduction of sea lice in treated groups versus a control group, using the Abbott's formula.

In experiment [2] the test system is Mobile stages of sea lice (pre-adults, adults of Lepeophtheirus salmonis). Briefly: Adult sea lice contact assay. The note with it: assessed after approximately 1 and 24 hours of continuous exposure, read-out: EC50 (sea lice inhibition, dead+damaged sea lice). As to the method:
Mobile stages of sea lice (i.e., pre-adults, adults of Lepeophtheirus salmonis) were exposed to seawater spiked with declining concentrations of a test compound (dissolved in a PEG sea-water mixture). Sea lice inhibition (% of dead+damaged sea lice) was assessed after approximately 1 and 24 hours of continuous exposure in comparison to a negative (solvent) control group.

The subject of experiment [3] is Copepodids (juvenile sea lice stage of Lepeophtheirus salmonis). In words: Juvenile sea lice contact assay. The note with it: approximately 24 hours continuous exposure in seawater, read-out: Sea lice inhibition (% of dead+damaged copepodids); for inhibition at 0.01 µM: test concentration 10 nM; for inhibition at 0.1 µM: test concentration 100 nM; for inhibition at 10 pM: test concentration 0.01 nM. On the procedure:
Copepodids (juvenile sea lice stage of Lepeophtheirus salmonis) were exposed to seawater spiked with declining concentrations of a test compound (dissolved in a DMSO sea-water mixture). Sea lice inhibition (% of dead+damaged copepodids) was assessed after approximately 24 hours of continuous exposure. The vitality of used parasites was confirmed in a negative (solvent) control group.

[4] abbreviates: 168 h, read-out: therapeutic efficacy against (pre-)adult sea lice (% reduction vs control, Abbott's formula), once orally by gavage 5 mg/kg bodyweight, day -28 infestation, counted at day 7.
Setting [5] is: 672 h, read-out: prophylactic efficacy at re-infestation on Day 17 (% reduction vs control, Abbott's formula), once orally by gavage 5 mg/kg bodyweight, re-infestation day 17, counted around day 28.
[6] abbreviates: 672 h, read-out: therapeutic efficacy against juvenile sea lice (% reduction vs control, Abbott's formula), once orally by gavage 5 mg/kg bodyweight, day -3 infestation, counted around day 28.

The term pEC50 denotes the negative decadic logarithm of the EC50, by convention in mol/L. Usually inhibition stands for the change of the read-out against control, counted positive when it falls. Turning to `N#CC1(NC(=O)c2cc(NC(=O)[C@H]3[C@H](c4cc(Cl)c(F)c(Cl)c4)C3(Cl)Cl)ccc2Cl)CC1` [Compound 1609], the inhibition in vivo at 5 mg/kg in experiment [1] (setting [4]), in experiment [1] (setting [5]) and in experiment [1] (setting [6]) was 100% throughout. For the same compound, the negative logarithm of the EC50 (pEC50) in experiment [2] was 8.00 to 9.00. Besides, the inhibition at 0.01 µM in experiment [3] turned out to be 100%.

For `C#CC1(NC(=O)c2cc(NC(=O)[C@H]3[C@H](c4cc(Cl)cc(Cl)c4)C3(Cl)Cl)cc(F)c2F)CC1` [Compound 1617, 5-((1R,3R)-2,2-dichloro-3-(3,5-dichlorophenyl)cyclopropane-1-carboxamido)-N-(1-ethynylcyclopropyl)-2,3-difluorobenzamide], the inhibition in vivo at 5 mg/kg in experiment [1] (setting [4]), in experiment [1] (setting [5]) and in experiment [1] (setting [6]) was 100% each time. Further, the pEC50 in experiment [2] was not below 9.00. Further, the inhibition at 0.1 µM in experiment [3] turned out to be 100%.

As to `CC1(NC(=O)c2cc(NC(=O)[C@H]3[C@H](c4cc(Cl)cc(Cl)c4)C3(Cl)Cl)ccc2F)CC1` [Compound 1626], the inhibition in vivo at 5 mg/kg in experiment [1] (setting [4]) amounted to 100%; in experiment [1] (setting [6]), 80%. Besides, the negative logarithm of the EC50 (pEC50) in experiment [2] was 8.00 to 9.00. Further, the inhibition at 0.01 µM in experiment [3] was not below 80%.

Take `N#CC1(NC(=O)c2cc(NC(=O)[C@H]3[C@H](c4ccc(C(F)F)c(F)c4)C3(Cl)Cl)ccc2Cl)CC1` [Compound 1587]: the inhibition in vivo at 5 mg/kg in experiment [1] (setting [4]) was determined as 80%. The pEC50 in experiment [2] is not below 9.00. In experiment [3], the inhibition at 0.1 µM turned out to be 100%.

With `O=C(NC1CC(F)(F)C1)c1cc(NC(=O)[C@H]2[C@H](c3cc(Cl)cc(Cl)c3)C2(Cl)Cl)cc(F)c1F` [Compound 1628], the inhibition in vivo at 5 mg/kg in experiment [1] (setting [4]), in experiment [1] (setting [5]) and in experiment [1] (setting [6]) was 100% in each case. In addition, the pEC50 in experiment [2] is 8.00 to 9.00. The inhibition at 0.01 µM in experiment [3] is 100%.

As for `O=C(NC1CC1)c1cc(NC(=O)[C@H]2[C@H](c3cc(Cl)cc(Cl)c3)C2(Cl)Cl)ccc1F` [Compound 1632], the inhibition in vivo at 5 mg/kg in experiment [1] (setting [4]) amounted to 100%; in experiment [1] (setting [6]) it was 80%. In addition, the pEC50 in experiment [2] is not below 9.00. The inhibition at 10 pM in experiment [3] worked out at 80%.

In the case of `N#CC1(NC(=O)c2cc(NC(=O)[C@H]3[C@H](c4ccc(F)c(Cl)c4)C3(Cl)Cl)ccc2Cl)CC1` [Compound 1608], the inhibition in vivo at 5 mg/kg in experiment [1] (setting [4]) and in experiment [1] (setting [6]) was 100% in each case. Also, the pEC50 in experiment [2] was not below 9.00. In addition, in experiment [3], the inhibition at 10 pM is 100%.

Consider `C#CC1(NC(=O)c2cc(NC(=O)[C@H]3[C@H](c4cc(Cl)cc(Cl)c4)C3(Cl)Cl)ccc2Cl)CC1` [Compound 1620, 2-chloro-5-((1R,3R)-2,2-dichloro-3-(3,5-dichlorophenyl)cyclopropane-1-carboxamido)-N-(1-ethynylcyclopropyl)benzamide], for which the inhibition in vivo at 5 mg/kg in experiment [1] (setting [4]) is 100%; in experiment [1] (setting [6]) it was 80%. In addition, the negative-log EC50 (pEC50) in experiment [2] is not below 9.00. In experiment [3], the inhibition at 0.01 µM was determined as 100%.

Turning to `N#CC1(NC(=O)c2cc(NC(=O)[C@H]3[C@H](c4ccc(Cl)c(F)c4)C3(Cl)Cl)ccc2Cl)CC1` [Compound 1606], the inhibition in vivo at 5 mg/kg in experiment [1] (setting [4]) and in experiment [1] (setting [6]) was 100% each time. In addition, in experiment [2], the pEC50 is 7.60 to 8.00. Moreover, in experiment [3], the inhibition at 0.1 µM amounted to 100%.

With `N#CC1(NC(=O)c2cc(NC(=O)C3C(c4cc(F)cc(C(F)F)c4)C3(Cl)Cl)ccc2Cl)CC1` (racemic) [Compound 1547], in experiment [2], the pEC50 was 8.00 to 9.00. For the same compound, the inhibition at 0.1 µM in experiment [3] worked out at 100%.

Turning to `O=C(NC1(C(F)(F)F)CC1)c1cc(NC(=O)C2C(c3cc(F)c(F)c(F)c3)C2(Cl)Cl)ccc1Cl` (stereo not drawn) [Compound 1604], the negative logarithm of the EC50 (pEC50) in experiment [2] is 7.60 to 8.00. For the same compound, the inhibition at 0.01 µM in experiment [3] was found to be 100%.
